Assay results taken from the NIST ThermoML archive (doi:10.1016/j.tca.2017.04.014).
± gives the expanded uncertainty stated by the source.

Experiment: xn = mol fraction of the nth substance listed
Details: 298.15 K, 101.3 kPa, Crystal

[O-2].[O-2].[Th+4] [thorium dioxide] + [O-2].[O-2].[U+4]
mass density [kg/m3]
Details	x1 = 0.3	x1 = 0.5	x1 = 0.6	x1 = 0.7	x1 = 0.8	x1 = 0.9	x1 = 1
From pellet mass and volume	8570 ± 1900	8600 ± 1700	8410 ± 1700	9020 ± 1800	9240 ± 1800	8800 ± 1800	9390 ± 1900
X-ray diffraction	10810 ± 210	10810 ± 140	10640 ± 130	10480 ± 100	10350 ± 70	10170 ± 50	10000 ± 30
buoyancy	8960 ± 1900	8780 ± 1800	8690 ± 1800	9290 ± 1900	9590 ± 1900	9210 ± 1800	9430 ± 1900
